According to ChEMBL document CHEMBL2203177, “Tuning the activity of a short arg-trp antimicrobial Peptide by lipidation of a C- or N-terminal lysine side-chain” (ACS Med Chem Lett, 2012):
Converted amounts (≈) assume the structure as drawn. Peptide text beside a SMILES is read from it. * marks the point of attachment. Myristoyl = CCCCCCCCCCCCCC(=O)*; Lauroyl = CCCCCCCCCCCC(=O)*; Decanoyl = CCCCCCCCCC(=O)*; Octanoyl = CCCCCCCC(=O)*; Hexanoyl = CCCCCC(=O)*; Butyryl = CCCC(=O)*

What was measured:
[1] = Hemolytic activity against human RBC assessed as hemoglobin leakage at 250 ug/ml; format: ADME, cell-based, Erythrocyte; conditions: human red blood cells, read-out: Activity
[2] = test system: Bacillus subtilis; experiment: Antibacterial activity against Bacillus subtilis 168 DSM 402 assessed as growth inhibition after 18 hrs; format: functional; conditions: subsp. subtilis str. 168 DSM 402, 18 h
[3] = test system: Staphylococcus aureus; experiment: Antibacterial activity against Staphylococcus aureus ATCC 43300 assessed as growth inhibition after 18 hrs; format: functional; conditions: ATCC 43300, 18 h
[4] = test system: Staphylococcus aureus; experiment: Antibacterial activity against Staphylococcus aureus DSM 20231 assessed as growth inhibition after 18 hrs; format: functional; conditions: DSM 20231, 18 h
[5] = test system: Pseudomonas aeruginosa; experiment: Antibacterial activity against Pseudomonas aeruginosa DSM 50071 assessed as growth inhibition after 18 hrs; format: functional; conditions: DSM 50071, 18 h
[6] = test system: Acinetobacter baumannii; experiment: Antibacterial activity against Acinetobacter baumannii DSM 30007 assessed as growth inhibition after 18 hrs; format: functional; conditions: DSM 30007, 18 h
[7] = test system: Escherichia coli; experiment: Antibacterial activity against Escherichia coli DSM 30083 assessed as growth inhibition after 18 hrs; format: functional; conditions: DSM 30083, 18 h
[8] = test system: Bacillus subtilis; experiment: Bactericidal activity against Bacillus subtilis 168 (trpC2)2 assessed as survival rate at twice MIC concentration incubated for 15 mins measured after 18 hrs; format: functional, subsp. subtilis str. 168 (trpC2)2
[9] = test system: MCF7; experiment: Selectivity index, ratio of IC50 for human GM5657 cells to IC50 for human MCF7 cells; format: functional
[10] = Ratio of IC50 for human GM5657 cells to MIC for Staphylococcus aureus DSM 20231; format: functional
[11] = Selectivity index, ratio of IC50 for human GM5657 cells to IC50 for human HT29 cells; format: functional
[12] = Cytotoxicity against human GM5657 cells assessed as inhibition of cell viability after 48 hrs by crystal violet assay; format: cell-based; conditions: GM5657, 48 h
[13] = test system: HT-29; experiment: Cytotoxicity against human HT-29 cells assessed as inhibition of cell viability after 48 hrs by crystal violet assay; format: functional, cell-based; conditions: HT-29, 48 h
[14] = test system: MCF7; experiment: Cytotoxicity against human MCF7 cells assessed as inhibition of cell viability after 48 hrs by crystal violet assay; format: functional, cell-based; conditions: MCF7, 48 h
[15] = Hemolytic activity against human RBC assessed as hemoglobin leakage at 500 ug/ml after 5 mins; format: ADME, cell-based, Erythrocyte; conditions: human red blood cells, read-out: Activity
[16] = Hemolytic activity against human RBC assessed as hemoglobin leakage; format: ADME, cell-based, Erythrocyte; conditions: human red blood cells

Compound	hemolysis at 250 ug/ml [1]	MIC [2]	MIC [3]	MIC [4]	MIC [5]	MIC [6]	MIC [7]	Survival [8]	Ratio IC50 [9]	Ratio IC50 [10]	Ratio IC50 [11]	IC50 [12]	IC50 [13]	IC50 [14]	hemolysis at 5 min, 500 ug/ml [15]	HC50 [16]
CC(=O)NCCCC[C@H](N)C(=O)N[C@@H](CCCNC(=N)N)C(=O)N[C@@H](Cc1c[nH]c2ccccc12)C(=O)N[C@@H](CCCNC(=N)N)C(=O)N[C@@H](Cc1c[nH]c2ccccc12)C(=O)N[C@@H](CCCNC(=N)N)C(=O)N[C@@H](Cc1c[nH]c2ccccc12)C(N)=O (H-K(Ac)RWRWRW-NH2)	< 10%	10 µM (≈ 12.1 µg/mL)	> 100 µM	> 100 µM	> 100 µM	> 100 µM	> 100 µM									
CCCC(=O)NCCCC[C@H](N)C(=O)N[C@@H](CCCNC(=N)N)C(=O)N[C@@H](Cc1c[nH]c2ccccc12)C(=O)N[C@@H](CCCNC(=N)N)C(=O)N[C@@H](Cc1c[nH]c2ccccc12)C(=O)N[C@@H](CCCNC(=N)N)C(=O)N[C@@H](Cc1c[nH]c2ccccc12)C(N)=O (H-K(Butyryl)RWRWRW-NH2)	< 10%	2 µM (≈ 2.49 µg/mL)	19 µM (≈ 23.6 µg/mL)	38 µM (≈ 47.2 µg/mL)	> 100 µM	> 100 µM	38 µM (≈ 47.2 µg/mL)									
CCCCCCCCCC(=O)NCCCC[C@H](N)C(=O)N[C@@H](CCCNC(=N)N)C(=O)N[C@@H](Cc1c[nH]c2ccccc12)C(=O)N[C@@H](CCCNC(=N)N)C(=O)N[C@@H](Cc1c[nH]c2ccccc12)C(=O)N[C@@H](CCCNC(=N)N)C(=O)N[C@@H](Cc1c[nH]c2ccccc12)C(N)=O (H-K(Decanoyl)RWRWRW-NH2)	> 50%	2 µM (≈ 2.65 µg/mL)	1 µM (≈ 1.33 µg/mL)	2 µM (≈ 2.65 µg/mL)	9 µM (≈ 11.9 µg/mL)	9 µM (≈ 11.9 µg/mL)	5 µM (≈ 6.63 µg/mL)	0.016%								
CCCCCC(=O)NCCCC[C@H](N)C(=O)N[C@@H](CCCNC(=N)N)C(=O)N[C@@H](Cc1c[nH]c2ccccc12)C(=O)N[C@@H](CCCNC(=N)N)C(=O)N[C@@H](Cc1c[nH]c2ccccc12)C(=O)N[C@@H](CCCNC(=N)N)C(=O)N[C@@H](Cc1c[nH]c2ccccc12)C(N)=O (H-K(Hexanoyl)RWRWRW-NH2)	< 10%	0.6 µM (≈ 0.762 µg/mL)	5 µM (≈ 6.35 µg/mL)	5 µM (≈ 6.35 µg/mL)	37 µM (≈ 47 µg/mL)	9 µM (≈ 11.4 µg/mL)	9 µM (≈ 11.4 µg/mL)	0.211%								
CCCCCCCCCCCC(=O)NCCCC[C@H](N)C(=O)N[C@@H](CCCNC(=N)N)C(=O)N[C@@H](Cc1c[nH]c2ccccc12)C(=O)N[C@@H](CCCNC(=N)N)C(=O)N[C@@H](Cc1c[nH]c2ccccc12)C(=O)N[C@@H](CCCNC(=N)N)C(=O)N[C@@H](Cc1c[nH]c2ccccc12)C(N)=O (H-K(Lauroyl)RWRWRW-NH2)	> 50%	9 µM (≈ 12.2 µg/mL)	2 µM (≈ 2.71 µg/mL)	4 µM (≈ 5.42 µg/mL)	> 100 µM	18 µM (≈ 24.4 µg/mL)	9 µM (≈ 12.2 µg/mL)	0.011%								
CCCCCCCCCCCCCC(=O)NCCCC[C@H](N)C(=O)N[C@@H](CCCNC(=N)N)C(=O)N[C@@H](Cc1c[nH]c2ccccc12)C(=O)N[C@@H](CCCNC(=N)N)C(=O)N[C@@H](Cc1c[nH]c2ccccc12)C(=O)N[C@@H](CCCNC(=N)N)C(=O)N[C@@H](Cc1c[nH]c2ccccc12)C(N)=O (H-K(Myristoyl)RWRWRW-NH2)	> 50%	9 µM (≈ 12.4 µg/mL)	17 µM (≈ 23.5 µg/mL)	9 µM (≈ 12.4 µg/mL)	> 100 µM	35 µM (≈ 48.4 µg/mL)	35 µM (≈ 48.4 µg/mL)	0.033%								
CCCCCCCC(=O)NCCCC[C@H](N)C(=O)N[C@@H](CCCNC(=N)N)C(=O)N[C@@H](Cc1c[nH]c2ccccc12)C(=O)N[C@@H](CCCNC(=N)N)C(=O)N[C@@H](Cc1c[nH]c2ccccc12)C(=O)N[C@@H](CCCNC(=N)N)C(=O)N[C@@H](Cc1c[nH]c2ccccc12)C(N)=O (H-K(Octanoyl)RWRWRW-NH2)	> 50%	0.6 µM (≈ 0.779 µg/mL)	1 µM (≈ 1.3 µg/mL)	2 µM (≈ 2.6 µg/mL)	9 µM (≈ 11.7 µg/mL)	9 µM (≈ 11.7 µg/mL)	5 µM (≈ 6.49 µg/mL)	0.006%	7	15	7	32.5 µM	4.3 µM	4.6 µM	88%	114 µM
N=C(N)NCCC[C@H](NC(=O)[C@H](Cc1c[nH]c2ccccc12)NC(=O)[C@H](CCCNC(=N)N)NC(=O)[C@H](Cc1c[nH]c2ccccc12)NC(=O)[C@H](CCCNC(=N)N)NC(=O)[C@@H](N)CCCCN)C(=O)N[C@@H](Cc1c[nH]c2ccccc12)C(N)=O (H-KRWRWRW-NH2)	< 10%	2 µM (≈ 2.34 µg/mL)	9 µM (≈ 10.6 µg/mL)	37 µM (≈ 43.4 µg/mL)	> 100 µM	> 100 µM	18 µM (≈ 21.1 µg/mL)	7%								
N=C(N)NCCC[C@H](NC(=O)[C@H](Cc1c[nH]c2ccccc12)NC(=O)[C@H](CCCNC(=N)N)NC(=O)[C@H](Cc1c[nH]c2ccccc12)NC(=O)[C@@H](N)CCCNC(=N)N)C(=O)N[C@@H](Cc1c[nH]c2ccccc12)C(N)=O (H-RWRWRW-NH2)	< 10%	3 µM (≈ 3.13 µg/mL)	6 µM (≈ 6.27 µg/mL)	11 µM (≈ 11.5 µg/mL)	> 100 µM	85 µM (≈ 88.8 µg/mL)	21 µM (≈ 21.9 µg/mL)	2.8%								
CC(=O)NCCCC[C@H](NC(=O)[C@H](Cc1c[nH]c2ccccc12)NC(=O)[C@H](CCCNC(=N)N)NC(=O)[C@H](Cc1c[nH]c2ccccc12)NC(=O)[C@H](CCCNC(=N)N)NC(=O)[C@H](Cc1c[nH]c2ccccc12)NC(=O)[C@@H](N)CCCNC(=N)N)C(N)=O (H-RWRWRWK(Ac)-NH2)	< 10%	10 µM (≈ 12.1 µg/mL)	> 100 µM	> 100 µM	> 100 µM	> 100 µM	> 100 µM									
CCCC(=O)NCCCC[C@H](NC(=O)[C@H](Cc1c[nH]c2ccccc12)NC(=O)[C@H](CCCNC(=N)N)NC(=O)[C@H](Cc1c[nH]c2ccccc12)NC(=O)[C@H](CCCNC(=N)N)NC(=O)[C@H](Cc1c[nH]c2ccccc12)NC(=O)[C@@H](N)CCCNC(=N)N)C(N)=O (H-RWRWRWK(Butyryl)-NH2)	< 10%	5 µM (≈ 6.21 µg/mL)	38 µM (≈ 47.2 µg/mL)	> 100 µM	> 100 µM	> 100 µM	38 µM (≈ 47.2 µg/mL)									
CCCCCCCCCC(=O)NCCCC[C@H](NC(=O)[C@H](Cc1c[nH]c2ccccc12)NC(=O)[C@H](CCCNC(=N)N)NC(=O)[C@H](Cc1c[nH]c2ccccc12)NC(=O)[C@H](CCCNC(=N)N)NC(=O)[C@H](Cc1c[nH]c2ccccc12)NC(=O)[C@@H](N)CCCNC(=N)N)C(N)=O (H-RWRWRWK(Decanoyl)-NH2)	50%	0.6 µM (≈ 0.796 µg/mL)	1 µM (≈ 1.33 µg/mL)	1 µM (≈ 1.33 µg/mL)	9 µM (≈ 11.9 µg/mL)	5 µM (≈ 6.63 µg/mL)	2 µM (≈ 2.65 µg/mL)	0.053%								
CCCCCC(=O)NCCCC[C@H](NC(=O)[C@H](Cc1c[nH]c2ccccc12)NC(=O)[C@H](CCCNC(=N)N)NC(=O)[C@H](Cc1c[nH]c2ccccc12)NC(=O)[C@H](CCCNC(=N)N)NC(=O)[C@H](Cc1c[nH]c2ccccc12)NC(=O)[C@@H](N)CCCNC(=N)N)C(N)=O (H-RWRWRWK(Hexanoyl)-NH2)	< 10%	2 µM (≈ 2.54 µg/mL)	9 µM (≈ 11.4 µg/mL)	18 µM (≈ 22.9 µg/mL)	74 µM (≈ 94 µg/mL)	19 µM (≈ 24.1 µg/mL)	19 µM (≈ 24.1 µg/mL)	0.687%								
CCCCCCCCCCCC(=O)NCCCC[C@H](NC(=O)[C@H](Cc1c[nH]c2ccccc12)NC(=O)[C@H](CCCNC(=N)N)NC(=O)[C@H](Cc1c[nH]c2ccccc12)NC(=O)[C@H](CCCNC(=N)N)NC(=O)[C@H](Cc1c[nH]c2ccccc12)NC(=O)[C@@H](N)CCCNC(=N)N)C(N)=O (H-RWRWRWK(Lauroyl)-NH2)	> 50%	1 µM (≈ 1.35 µg/mL)	1 µM (≈ 1.35 µg/mL)	1 µM (≈ 1.35 µg/mL)	18 µM (≈ 24.4 µg/mL)	9 µM (≈ 12.2 µg/mL)	4 µM (≈ 5.42 µg/mL)	0.004%								
CCCCCCCCCCCCCC(=O)NCCCC[C@H](NC(=O)[C@H](Cc1c[nH]c2ccccc12)NC(=O)[C@H](CCCNC(=N)N)NC(=O)[C@H](Cc1c[nH]c2ccccc12)NC(=O)[C@H](CCCNC(=N)N)NC(=O)[C@H](Cc1c[nH]c2ccccc12)NC(=O)[C@@H](N)CCCNC(=N)N)C(N)=O (H-RWRWRWK(Myristoyl)-NH2)	> 50%	4 µM (≈ 5.53 µg/mL)	2 µM (≈ 2.77 µg/mL)	2 µM (≈ 2.77 µg/mL)	70 µM (≈ 96.8 µg/mL)	9 µM (≈ 12.4 µg/mL)	17 µM (≈ 23.5 µg/mL)	0%								
N=C(N)NCCC[C@H](NC(=O)[C@H](Cc1c[nH]c2ccccc12)NC(=O)[C@H](CCCNC(=N)N)NC(=O)[C@H](Cc1c[nH]c2ccccc12)NC(=O)[C@@H](N)CCCNC(=N)N)C(=O)N[C@@H](Cc1c[nH]c2ccccc12)C(=O)N[C@@H](CCCCN)C(N)=O (H-RWRWRWK-NH2)	< 10%	5 µM (≈ 5.86 µg/mL)	18 µM (≈ 21.1 µg/mL)	37 µM (≈ 43.4 µg/mL)	> 100 µM	> 100 µM	18 µM (≈ 21.1 µg/mL)									
